From article PMC6290913 (Journal of medicinal chemistry, 2018)

Key:
[1] = test system: AsPC-1 human pancreatic cancer cells + human pancreatic stellate cells; assay: Orthotopic xenograft mouse model of pancreatic cancer; conditions: for liver metastases: 18 or 26 10 mg/kg ip daily for 28 days, compared to gemcitabine
[2] = molecular target: Mouse uPA (active mouse urokinase, HMW) (Mus musculus, UniProt P06869)
85 serine hydrolases = conditions: 33.3 μM to 10 nM; semiquantitative
[3] = molecular target: low molecular weight human uPA (Homo sapiens, UniProt P00749); assay: Fluorometric uPA activity assay; format: biochemical; conditions: relative to HMA 5
Trypsin = assay: Chromogenic TLSP activity assay, trypsin; format: biochemical; conditions: read-out: Trypsin IC50; chromogenic enzyme inhibition assay
[4] = molecular target: human ENaCs (α, β, and γ subunits) (Homo sapiens, UniProt P37088+P51168+P51170); assay: ENaC inhibition assay; format: cell-based; conditions: 10 μM compound; transfected HEK-293 cells
uPA = uPA (Homo sapiens, UniProt P00749); assay: EnPlex activity-based protein profiling, uPA; conditions: 33.3 μM to 10 nM; semiquantitative

Mouse uPA (active mouse urokinase, HMW), sequence (P06869 180-433 limits assumed): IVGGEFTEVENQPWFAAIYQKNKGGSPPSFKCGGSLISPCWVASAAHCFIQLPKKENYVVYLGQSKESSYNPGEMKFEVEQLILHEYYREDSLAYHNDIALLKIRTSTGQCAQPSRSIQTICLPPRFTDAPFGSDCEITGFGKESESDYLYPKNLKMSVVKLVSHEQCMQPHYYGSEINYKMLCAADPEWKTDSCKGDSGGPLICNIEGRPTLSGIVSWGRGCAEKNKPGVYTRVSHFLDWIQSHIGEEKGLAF
Mouse uPA (active mouse urokinase, HMW), sequence (P06869 21-178 partner limits assumed): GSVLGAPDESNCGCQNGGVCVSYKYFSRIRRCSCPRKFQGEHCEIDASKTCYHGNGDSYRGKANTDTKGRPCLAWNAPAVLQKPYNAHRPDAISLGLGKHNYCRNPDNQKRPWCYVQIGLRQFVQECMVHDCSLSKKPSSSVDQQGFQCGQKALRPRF
human ENaCs (α, β, and γ subunits), sequence (P51170 whole entry): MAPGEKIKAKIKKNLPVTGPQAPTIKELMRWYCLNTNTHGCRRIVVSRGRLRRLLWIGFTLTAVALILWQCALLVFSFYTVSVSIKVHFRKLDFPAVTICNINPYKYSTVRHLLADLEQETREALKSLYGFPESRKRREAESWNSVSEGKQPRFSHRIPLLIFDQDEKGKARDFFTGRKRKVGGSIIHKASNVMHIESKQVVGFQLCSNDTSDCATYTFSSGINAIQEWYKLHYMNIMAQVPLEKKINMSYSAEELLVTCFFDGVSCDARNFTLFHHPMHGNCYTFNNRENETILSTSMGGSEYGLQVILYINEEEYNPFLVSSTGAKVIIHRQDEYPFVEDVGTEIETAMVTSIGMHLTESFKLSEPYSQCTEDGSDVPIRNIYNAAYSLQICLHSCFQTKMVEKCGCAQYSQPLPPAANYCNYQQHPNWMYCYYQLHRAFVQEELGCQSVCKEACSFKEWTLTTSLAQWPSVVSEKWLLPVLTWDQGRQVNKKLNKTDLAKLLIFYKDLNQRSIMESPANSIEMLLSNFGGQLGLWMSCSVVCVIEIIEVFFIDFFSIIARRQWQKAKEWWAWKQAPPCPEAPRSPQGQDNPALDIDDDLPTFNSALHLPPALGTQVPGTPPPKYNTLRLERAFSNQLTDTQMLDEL
human ENaCs (α, β, and γ subunits), sequence (P37088 whole entry): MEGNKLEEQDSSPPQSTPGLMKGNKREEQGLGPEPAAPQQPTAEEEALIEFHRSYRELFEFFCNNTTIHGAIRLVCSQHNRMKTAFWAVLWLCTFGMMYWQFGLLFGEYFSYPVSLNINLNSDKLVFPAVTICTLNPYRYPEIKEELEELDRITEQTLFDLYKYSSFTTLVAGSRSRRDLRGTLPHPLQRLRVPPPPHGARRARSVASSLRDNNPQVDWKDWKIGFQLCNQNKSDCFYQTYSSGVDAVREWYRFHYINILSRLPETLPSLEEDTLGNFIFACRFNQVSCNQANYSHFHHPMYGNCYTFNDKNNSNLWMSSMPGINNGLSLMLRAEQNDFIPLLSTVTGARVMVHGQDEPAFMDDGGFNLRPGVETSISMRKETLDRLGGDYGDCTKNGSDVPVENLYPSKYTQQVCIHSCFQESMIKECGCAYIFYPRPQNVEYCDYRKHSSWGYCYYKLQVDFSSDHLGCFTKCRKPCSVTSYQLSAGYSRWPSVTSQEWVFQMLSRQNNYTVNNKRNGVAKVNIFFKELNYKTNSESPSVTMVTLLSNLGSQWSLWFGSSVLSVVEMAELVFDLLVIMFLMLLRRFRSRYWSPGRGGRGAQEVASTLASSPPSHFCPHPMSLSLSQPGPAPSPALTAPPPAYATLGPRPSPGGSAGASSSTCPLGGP
human ENaCs (α, β, and γ subunits), sequence (P51168 whole entry): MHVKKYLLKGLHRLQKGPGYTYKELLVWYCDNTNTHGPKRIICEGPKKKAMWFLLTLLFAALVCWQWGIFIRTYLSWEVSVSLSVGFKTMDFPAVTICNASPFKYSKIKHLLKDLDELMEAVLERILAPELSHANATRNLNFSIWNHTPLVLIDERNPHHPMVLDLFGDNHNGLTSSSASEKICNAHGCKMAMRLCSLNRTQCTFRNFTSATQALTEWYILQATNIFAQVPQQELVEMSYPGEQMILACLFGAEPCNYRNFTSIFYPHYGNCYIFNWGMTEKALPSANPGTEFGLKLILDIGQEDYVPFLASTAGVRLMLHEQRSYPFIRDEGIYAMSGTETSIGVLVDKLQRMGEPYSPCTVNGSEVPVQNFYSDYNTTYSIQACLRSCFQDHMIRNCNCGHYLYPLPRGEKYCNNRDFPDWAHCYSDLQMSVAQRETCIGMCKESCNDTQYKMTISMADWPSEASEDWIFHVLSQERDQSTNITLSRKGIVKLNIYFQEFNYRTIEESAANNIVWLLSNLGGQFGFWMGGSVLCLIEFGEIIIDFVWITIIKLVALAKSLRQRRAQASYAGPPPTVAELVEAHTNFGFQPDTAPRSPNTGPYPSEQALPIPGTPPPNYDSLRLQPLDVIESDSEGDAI

| Structure (SMILES) | decrease in affinity for mouse uPA versus human uPA [2] | serine hydrolases inhibited in EnPlex screen (85 serine hydrolases) | increase in uPA potency relative to HMA [3] | also measured |
| --- | --- | --- | --- | --- |
| COc1ncc(-c2nc(C(=O)NC(=N)N)c(N)nc2N2CCCCCC2)cn1 [Compound 26, 3-Amino-5-(azepan-1-yl)-N-carbamimidoyl-6-(2-methoxypyrimidin-5-yl)pyrazine-2-carboxamide] | 10- to 30 fold | slight activity against C1s, plasma kallikrein, plasmin, prolylcarboxy peptidase, trypsin, and transmembrane protease serine 11D (TMPRSS11d) |  | liver metastases [1]: no macroscopic metastatic lesions observed |
| Cn1cc(-c2nc(C(=O)NC(=N)N)c(N)nc2N2CCCCCC2)cn1 [Compound 14, 3-Amino-5-(azepan-1-yl)-N-carbamimidoyl-6-(1-methyl-1H-pyrazol-4-yl)pyrazine-2-carboxamide] |  |  | ~ 2.7 fold |  |
| N=C(N)NC(=O)c1nc(-c2cncnc2)c(N2CCCCCC2)nc1N [Compound 25, 3-Amino-5-(azepan-1-yl)-N-carbamimidoyl-6-(pyrimidin-5-yl)pyrazine-2-carboxamide] |  | slight inhibition of trypsin being the only off-target TLSP activity observed | ~ 12.6 fold |  |
| N=C(N)NC(=O)c1nc(Cl)c(N2CCCCCC2)nc1N [Compound 5, 5-N,N-(hexamethylene)amiloride, reference compound] | ~7 fold | activity against the highly homologous S28 protease family members dipeptidyl peptidase 2 (DPP7) and prolylcarboxypeptidase (PRCP) |  | IC50 (Trypsin): > 10 µM; inhibition of ENaC [4]: greatly reduced activity; inhibitory activity against uPA in EnPlex screen (uPA): not observed |
| N=C(N)NC(=O)c1nc(-c2cncc3ccccc23)c(N2CCCCCC2)nc1N [Compound 13, 3-Amino-5-(azepan-1-yl)-N-carbamimidoyl-6-(isoquinolin-4-yl)pyrazine-2-carboxamide] |  |  |  | decrease in uPA potency relative to HMA [3]: ~3 fold |
| N=C(N)NC(=O)c1nc(-c2ccccc2)c(N2CCCCCC2)nc1N [Compound 9] |  |  |  | decrease in uPA potency relative to HMA [3]: ~ 3.7 fold |
| N=C(N)NC(=O)c1nc(-c2ccco2)c(N2CCCCCC2)nc1N [Compound 22, 3-Amino-5-(azepan-1-yl)-N-carbamimidoyl-6-(furan-2-yl)-pyrazine-2-carboxamide] |  |  | ~ 8.7 fold |  |
| N=C(N)NC(=O)c1nc(-c2cc3ccccc3o2)c(N2CCCCCC2)nc1N [Compound 18, 3-Amino-5-(azepan-1-yl)-6-(benzofuran-2-yl)-N-carbamimidoylpyrazine-2-carboxamide] | 10- to 30 fold | inhibiting plasma kallikrein (KLKb1) and trypsin |  | IC50 (Trypsin): > 10 µM; liver metastases [1]: reduced |
| Nc1ccn([C@@H]2O[C@H](CO)[C@@H](O)C2(F)F)c(=O)n1 [gemcitabine, reference compound] |  |  |  | effect on end point primary tumor volume ([1]; gemcitabine 75 mg/kg po twice weekly, 18 or 26 10 mg/kg ip daily, 28 days): only modest inhibitory effects |
